Assays:
[1] = tested on: Caov-3 cells; assay: Transfection of Caov-3 cells with ODN1 using 34 (Example 12); assay type: cell-based, human; conditions: 6 h, 1:1 DOPE
Experimental: (§1) Preparation of lipid-nucleic acid complexes and cell transfection.
(§2) SK-BR-3, Caco-2, Caov-3 and MCF7 cells were transfected with ODN1 using 34 which was prepared as described in Example 5 using a 1:1 molar ratio of DOPE colipid. The sonicated lipid-colipid mixture (1 mL of a 2.5, 5 or 10 μg/mL suspension) was mixed with 250 pmole ODN1 and allowed to stand […] at room temperature […] before adding 1 mL of the lipid-ODN1 complex to the cells. The lipid-ODN1 complex was removed from the cells after 6 hours by washing the cells twice in PBS, followed by observing the cells in serum-containing medium immediately after removing the lipid-ODN1 complex.

[2] = as above; assay type: cell-based, human; conditions: human, caov-3 cells; Caov-3, 10.0 μg lipid; read-out: toxicity
Experimental: as §1, §2

[3] = tested on: T antigen; assay: Antisense inhibition of T antigen expression in CV-1 cells with ODN2A (Example 19); assay type: cell-based, African green monkey
Experimental: ODN2A, which was ODN2 lacking the fluorescent label at the 3' terminus, was used as an antisense oligonucleotide to inhibit T antigen expression in CV-1 cells using the protocol previously described (Wagner Science (1993) 260:1510-1513). CV-1 cells were transfected for 18 hours using 5 μg of 34 (1:1 molar ratio with DOPE colipid) and then cell nuclei were microinjected with T antigen plasmid using a needle concentration of 0.003 μg/mL of T antigen plasmid (ibid at page 1513, first column, note 5) and 0.025 μg/mL of β-galactosidase plasmid. The cells were scored for T antigen expression 4.5 hours after removing the transfection preparation from the cells. The cells were immunostained for β-galactosidase expression as an internal control for microinjected cells and the proportion of cells expressing both T antigen and β-galactosidase was determined.

[4] = tested on: SK-BR-3 cells; assay: Transfection of SK-BR-3 cells with ODN1 using 34 (Example 12); assay type: cell-based, human; conditions: 6 h, 1:1 DOPE
Experimental: as §1, §2

[5] = tested on: CV-1 cells; assay: Transfection of CV-1 cells with CAT RNA (Example 16); assay type: cell-based, African green monkey; conditions: 2.5 μg RNA, 5 μg lipid, 24 h, DMEM 10% FBS or Optimem
Experimental: CV-1 cells were transfected for 24 hours with RNA encoding chloramphenicol acetyltransferase (CAT). The transfections used 2.5 μg of RNA, 5 μg of 34 and DMEM with 10% FBS or Optimem™ with no serum. CAT activity was measured by immunofluorescence staining using fluorescent labeled anti-CATantibodies (5',3'Inc.). The cells were observed as previously described (Wagner, Science (1993) 260:1510).

[6] = tested on: Caco-2 cells; assay: Transfection of Caco-2 cells with ODN1 using 34 (Example 12); assay type: cell-based, human; conditions: 6 h, 1:1 DOPE
Experimental: as §1, §2

[7] = as above; assay type: cell-based, human; conditions: human, caco-2 cells; Caco-2, 5.0 μg lipid; read-out: toxicity
Experimental: as §1, §2

[8] = tested on: MCF7 cells; assay: Transfection of MCF7 cells with ODN1 using 34 (Example 12); assay type: cell-based, human; conditions: 6 h, 1:1 DOPE
Experimental: as §1, §2

[9] = tested on: cells; assay: Transfection with filtered preparations; assay type: cell-based; conditions: 1:1 DOPE, sonicated
Experimental: The invention cationic lipids 30 or 34 and DOPE colipid (1:1) were prepared by sonication and then filtered using 200, 100 or 50 nm filters to obtain particles less than about 200 nm in diameter, less than about 100 nm and less than about 50 nm. […] The 50 nm filtered preparations were about 40-50% as efficient as the preparations containing larger particles. The size of the particles or miscelles in a given preparation will vary depending on the preparation method. Sonicating cationic lipid-colipid mixtures will provide smaller miscelles and vortexing will provide larger miscelles (Felgner J. Biol. Chem. (1994) 269:2550-2561). Such miscelles are believed to transfer the polyanion into the cytoplasm of a eukaryotic or prokaryotic cell by pinocytosis, endocytosis and/or by direct fusion with the plasma membrane.

[10] = tested on: cells; assay: Amount of fluorescently labeled oligonucleotide delivered versus commercially available lipids; assay type: cell-based; conditions: observed fluorescence intensity, estimated
Excerpt: The difference in transfection efficiency between lipids described herein and commercially available lipids is usually most pronounced when the transfections are done in the presence of medium containing serum. The amount of polyanion delivered into cells was estimated to be about 2- to 100-fold greater for lipids 30, 34 and 35 based on the observed fluorescence intensity of transfected cells after transfection using a fluorescently labeled oligonucleotide. The cationic lipids described herein also transfect some cell types that are not detectably transfected by commercial lipids, particularly where the transfection is conducted in the presence of serum.

[11] = tested on: CV-1 cells; assay: Transfection of CV-1 cells with ODN1 and toxicity (Example 22); assay type: cell-based, African green monkey; conditions: for % cells transfected: 2:1 DOPE, 6 h, 10% FBS, 250 pmole ODN1
Experimental: (§3) Lipids 35, 52, 54 and 55 were each prepared using a 2:1 lipid:DOPE molar ratio as follows. Two molar equivalents of each lipid in CHCl3 and one equivalent of DOPE in CHCl3 was dried under reduced pressure by rotovap at room temperature. Deionized water was then added to give 1 mg/mL of total lipid. 10 mL of water containing 10 mg of lipid was vortexed for 5 minutes in a 100 mL round bottom flask. 2 mL aliquots were then used to prepare lipid suspensions for complexing with ODN1. Each preparation was obtained by 6 cycles of freezing on dry ice and thawing in a 37° C. water bath.

[12] = as above; assay type: cell-based, African green monkey; conditions: monkey, cv-1 cells; 10.0 μg lipid
Experimental: as §3

[13] = tested on: CV-1 cells; assay: Transfection of CV-1 cells with five 35:DOPE preparations (Example 20); assay type: cell-based, African green monkey; conditions: 35:DOPE 2:1, 1 μg lipid, 6 h, 10% FBS; in words
Experimental: Lipid complexes consisting of 35:DOPE (2:1 molar ratio) were prepared as follows. Two molar equivalents of 35 in CHCl3 and one equivalent of DOPE in CHCl3 was dried under reduced pressure by rotovap at room temperature. Deionized water was then added to give 1 mg/mL of total lipid. 10 mL of water containing 10 mg of lipid was vortexed for 5 minutes in a 100 mL round bottom flask. 2 mL aliquots were then used to prepare lipid suspensions for complexing with ODN1. The first preparation was obtained by directly using the vortexed 2 mL aliquot to prepare complexes with ODN1. The second preparation was obtained by 6 cycles of freezing on dry ice and thawing in a 37° C. water bath (Baxter, Dura Bath). The third preparation was obtained by placing a culture tube containing the lipid into a Ultra Sonik 100 (NEY) sonicator and the preparation was sonicated for 30 minutes at room temperature using the probe tip at maximum power. The fourth preparation was obtained by 6 cycles of freezing on dry ice and thawing in a 37° C. water bath, followed by filtering the suspension through a Lipofast™ 100 nm filter according to the manufacturer's instructions to obtain complexes less than about 100 nm in diameter. The fifth preparation was obtained by sonication for 10 minutes in a sonication bath followed by 5 sonication pulses for 15 seconds each with a probe sonicator (Sonifier 250, Branson Ultrasonics). […]

[14] = tested on: cdc-2 kinase; assay: cdc-2 antisense oligonucleotide analog transfection, Western blot (Example 22); assay type: cell-based, African green monkey; conditions: 30 nM cdc-2 antisense oligonucleotide analog, 2.5 and 5.0 μg lipid
Excerpt: The oligonucleotide contained 5-(1-propynyl)cytosine in place of cytosine and 5-(1-propynyl)uracil in place of uracil. A control oligonucleotide analog having a mismatched base sequence was also used to check for any non-specific effect on cdc-2 kinase levels in the transfected cells caused by the oligonucleotide analog. A control containing only lipid was also used as a control. […] Protein levels were examined by Western blot analysis.

In the case of `CCCCCCCCCCCCCCCCCCN(CCCCCCCCCCCCCCCCCC)C(=O)CNC(=O)[C@@H](N)CCCNC(=N)NC(=O)OC(C)(C)C` [Compound 34], the “% transfected” value ([1]; Caov-3, 2.5 μg lipid) is reported as 20%, the “% transfected” value ([1]; Caov-3, 5.0 μg lipid) is reported as 20% and the “% transfected” value ([1]; Caov-3, 10.0 μg lipid) is reported as 61%. For the same compound, the cytotoxicity at 6 h [2] was < 10%, the “efficiency in delivering ODN2A into cells compared with Lipofectin” value ([3]; 5 μg, 1:1 DOPE, 18 h, ODN2A needed to inhibit T antigen expression to an equal extent) was “about 10 fold” and the “delivery of antisense oligomer” value ([3]; in words) was “efficiently delivered the antisense oligomer into the cells without interfering with the capacity of the oligonucleotide to inhibit gene (protein) expression”. For the same compound, the “% transfected” value ([4]; SK-BR-3, 2.5 μg lipid) was 60-70%, the “% transfected” value ([4]; SK-BR-3, 5.0 μg lipid) was > 90% and the “% transfected” value ([4]; SK-BR-3, 10.0 μg lipid) was > 90%. The “cells expressing CAT” value [5] was 1-2%, the “% transfected” value ([6]; Caco-2, 2.5 μg lipid) was < 5% and the “% transfected” value ([6]; Caco-2, 5.0 μg lipid) was 10-15%. The “% transfected” value ([6]; Caco-2, 10.0 μg lipid) was 0%, the cytotoxicity at 6 h [7] was < 10% and the “% transfected” value ([8]; MCF7, 2.5 μg lipid) was 30-50%. The “% transfected” value ([8]; MCF7, 5.0 μg lipid) was 83%, the “% transfected” value ([8]; MCF7, 10.0 μg lipid) was 80% and the “transfection efficiency of 50 nm filtered preparations relative to larger particles” value ([9]; 50 nm filter) was 40-50%. The “transfection efficiency of 200 nm or 100 nm filtered preparations” value ([9]; in words) was “the most efficient (and equally efficient)” and the “amount of polyanion delivered into cells relative to commercially available lipids” value [10] was 2- to 100 fold.
With `CCCCCCCCCCCCCCN(CCCCCCCCCCCCCC)C(=O)CNC(=O)[C@@H](N)CCCNC(=N)NC(=O)OC(C)(C)C` [Compound 35] the “% cells transfected” value ([11]; 1 μg lipid) was 40%, the “% cells transfected” value ([11]; 2.5 μg lipid) was 85% and the “% cells transfected” value ([11]; 5.0 μg lipid) was 100%. The “% cells transfected” value ([11]; 10.0 μg lipid) was 60%, the “uniformity of cell staining” value ([11]; footnote, in words) was “relatively uniformly stained” and the cytotoxicity at 6 h [12] was > 40%. For the same compound, the “transfection of CV-1 cells, all preparations” value [13] was “efficiently transfected CV-1 cells”, the cdc-2 protein levels [14] was “efficiently reduced cdc-2 protein levels” and the “amount of polyanion delivered into cells relative to commercially available lipids” value [10] was 2- to 100 fold.

From patent US5705693A, “Cationic lipids” (Gilead Sciences, Inc., priority 1995, dated 1998)
